Laboratory results published in patent US20230085307A1, “PYRIDAZINONE COMPOUND AND HERBICIDE” (NISSAN CHEMICAL CORPORATION, priority 2019, published 2023).

Tests used:
[1] = tested on: wild oat; experiment: Test Example 5: herbicidal effect by foliage application, plastic box (Table 20, symbol I); assay type: in vivo, wild oat (Avena fatua); details: foliage application, AAH 320 g/ha, three weeks after application
Procedure, shortened: (§1)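 Plants were sown into sterilized diluvial soil under about 1.5 cm cover and kept in a greenhouse at 25° C. to 30° C. Fourteen days on, foliage received an even spray of the diluted emulsion. Herbicidal or crop effect was judged three weeks afterwards.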

[2] = tested on: velvetleaf; experiment: Test Example 4: herbicidal effect by soil treatment (Table 19, symbol M); assay type: in vivo, velvetleaf (Abutilon theophrasti); details: AAH 320 g/ha
Procedure, shortened: (§2)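 Pre-emergence style soil spray: seeds under ~1.5 cm sterilized diluvial soil received a uniform coat of emulsion diluted to the predetermined herbicide amount. Greenhouse 25–30° C; readout at week three on previously defined criteria.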

[3] = tested on: blackgrass; experiment: Test Example 4: herbicidal effect by soil treatment (Table 19, symbol J); assay type: in vivo, blackgrass (Alopecurus myosuroides); details: AAH 320 g/ha
Procedure, shortened: as §2

[4] = tested on: velvetleaf; experiment: Test Example 5: herbicidal effect by foliage application, plastic box (Table 20, symbol M); assay type: in vivo, velvetleaf (Abutilon theophrasti); details: foliage application, AAH 320 g/ha, three weeks after application
Procedure, shortened: as §1

[5] = tested on: persian speedwell; experiment: Test Example 4: herbicidal effect by soil treatment (Table 19, symbol R); assay type: in vivo, Persian speedwell (Veronica persica); details: AAH 320 g/ha
Procedure, shortened: as §2

[6] = tested on: persian speedwell; experiment: Test Example 5: herbicidal effect by foliage application, plastic box (Table 20, symbol R); assay type: in vivo, Persian speedwell (Veronica persica); details: foliage application, AAH 320 g/ha, three weeks after application
Procedure, shortened: as §1

[7] = tested on: redroot pigweed; experiment: Test Example 5: herbicidal effect by foliage application, plastic box (Table 20, symbol N); assay type: in vivo, redroot pigweed (Amaranthus retroflexus); details: foliage application, AAH 320 g/ha, three weeks after application
Procedure, shortened: as §1

[8] = tested on: Italian ryegrass; experiment: Test Example 5: herbicidal effect by foliage application, plastic box (Table 20, symbol K); assay type: in vivo, Italian ryegrass (Lolium multiflorum); details: foliage application, AAH 320 g/ha, three weeks after application
Procedure, shortened: as §1

[9] = tested on: chickweed; experiment: Test Example 5: herbicidal effect by foliage application, plastic box (Table 20, symbol P); assay type: in vivo, common chickweed (Stellaria media); details: foliage application, AAH 320 g/ha, three weeks after application
Procedure, shortened: as §1

[10] = tested on: windgrass; experiment: Test Example 5: herbicidal effect by foliage application, plastic box (Table 20, symbol L); assay type: in vivo, windgrass (Apera spica-venti); details: foliage application, AAH 320 g/ha, three weeks after application
Procedure, shortened: as §1

[11] = tested on: southern crabgrass; experiment: Test Example 4: herbicidal effect by soil treatment (Table 19, symbol F); assay type: in vivo, southern crabgrass (Digitaria ciliaris); details: AAH 320 g/ha
Procedure, shortened: as §2

[12] = tested on: blackgrass; experiment: Test Example 5: herbicidal effect by foliage application, plastic box (Table 20, symbol J); assay type: in vivo, blackgrass (Alopecurus myosuroides); details: foliage application, AAH 320 g/ha, three weeks after application
Procedure, shortened: as §1

[13] = tested on: barnyard grass; experiment: Test Example 4: herbicidal effect by soil treatment (Table 19, symbol H); assay type: in vivo, barnyard grass (Echinochloa crus-galli); details: AAH 320 g/ha
Procedure, shortened: as §2

[14] = tested on: green foxtail; experiment: Test Example 5: herbicidal effect by foliage application, plastic box (Table 20, symbol G); assay type: in vivo, green foxtail (Setaria viridis); details: foliage application, AAH 320 g/ha, three weeks after application
Procedure, shortened: as §1

[15] = tested on: green foxtail; experiment: Test Example 4: herbicidal effect by soil treatment (Table 19, symbol G); assay type: in vivo, green foxtail (Setaria viridis); details: AAH 320 g/ha
Procedure, shortened: as §2

[16] = tested on: redroot pigweed; experiment: Test Example 4: herbicidal effect by soil treatment (Table 19, symbol N); assay type: in vivo, redroot pigweed (Amaranthus retroflexus); details: AAH 320 g/ha
Procedure, shortened: as §2

[17] = tested on: lambsquarters; experiment: Test Example 4: herbicidal effect by soil treatment (Table 19, symbol O); assay type: in vivo, lambsquarters (Chenopodium album); details: AAH 320 g/ha
Procedure, shortened: as §2

[18] = tested on: lambsquarters; experiment: Test Example 5: herbicidal effect by foliage application, plastic box (Table 20, symbol O); assay type: in vivo, lambsquarters (Chenopodium album); details: foliage application, AAH 320 g/ha, three weeks after application
Procedure, shortened: as §1

[19] = tested on: Italian ryegrass; experiment: Test Example 4: herbicidal effect by soil treatment (Table 19, symbol K); assay type: in vivo, Italian ryegrass (Lolium multiflorum); details: AAH 320 g/ha
Procedure, shortened: as §2

[20] = tested on: rice flat sedge; experiment: Test Example 3: herbicidal effect by foliage application, Wagner pot (Table 18, symbol E); assay type: in vivo, rice flat sedge (Cyperus iria); details: 320 g/ha
Procedure, shortened: (§3)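 Plants were sown in alluvial soil held under 0.1–0.5 cm standing water and grown 14 days in a greenhouse at 25–30 °C. An emulsifiable formulation, water-diluted to the set dose, was then sprayed onto the foliage, and effects were scored three weeks later using previously defined criteria.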

[21] = tested on: chickweed; experiment: Test Example 4: herbicidal effect by soil treatment (Table 19, symbol P); assay type: in vivo, common chickweed (Stellaria media); details: AAH 320 g/ha
Procedure, shortened: as §2

[22] = tested on: southern crabgrass; experiment: Test Example 5: herbicidal effect by foliage application, plastic box (Table 20, symbol F); assay type: in vivo, southern crabgrass (Digitaria ciliaris); details: foliage application, AAH 320 g/ha, three weeks after application
Procedure, shortened: as §1

[23] = tested on: wild oat; experiment: Test Example 4: herbicidal effect by soil treatment (Table 19, symbol I); assay type: in vivo, wild oat (Avena fatua); details: AAH 320 g/ha
Procedure, shortened: as §2

[24] = tested on: barnyard grass; experiment: Test Example 5: herbicidal effect by foliage application, plastic box (Table 20, symbol H); assay type: in vivo, barnyard grass (Echinochloa crus-galli); details: foliage application, AAH 320 g/ha, three weeks after application
Procedure, shortened: as §1

[25] = tested on: windgrass; experiment: Test Example 4: herbicidal effect by soil treatment (Table 19, symbol L); assay type: in vivo, windgrass (Apera spica-venti); details: AAH 320 g/ha
Procedure, shortened: as §2

[26] = tested on: barnyard grass; experiment: Test Example 3: herbicidal effect by foliage application, Wagner pot (Table 18, symbol H); assay type: in vivo, barnyard grass (Echinochloa crus-galli); details: 320 g/ha
Procedure, shortened: as §3

[27] = tested on: Chinese sprangletop; experiment: Test Example 3: herbicidal effect by foliage application, Wagner pot (Table 18, symbol D); assay type: in vivo, chinese sprangletop (Leptochloa chinensis); details: 320 g/ha
Procedure, shortened: as §3

In the case of COc1ccc(-c2sc3ccccc3c2-c2c(O)c(OC)nn(C)c2=O)c(OC)c1 [1-180], the “I: wild oat, herbicidal effect” value [1] is reported as 3 (Herbicidal rate of 40% or more and less than 70%), the “M: velvetleaf, herbicidal effect rating” value [2] is reported as 0 (Herbicidal rate of 5% or less (almost no effect)) and the “J: blackgrass, herbicidal effect rating” value [3] is reported as 0 (Herbicidal rate of 5% or less (almost no effect)). The “M: velvetleaf, herbicidal effect” value [4] was 0 (Herbicidal rate of 5% or less (almost no effect)), the “R: persian speedwell, herbicidal effect rating” value [5] was 4 (Herbicidal rate of 70% or more and less than 90%) and the “R: persian speedwell, herbicidal effect” value [6] was 4 (Herbicidal rate of 70% or more and less than 90%). For the same compound, the “N: redroot pigweed, herbicidal effect” value [7] was 3 (Herbicidal rate of 40% or more and less than 70%), the “K: Italian ryegrass, herbicidal effect” value [8] was 3 (Herbicidal rate of 40% or more and less than 70%) and the “P: chickweed, herbicidal effect” value [9] was 5 (Herbicidal rate of 90% or more (almost completely withered)). For the same compound, the “L: windgrass, herbicidal effect” value [10] was 3 (Herbicidal rate of 40% or more and less than 70%), the “F: southern crabgrass, herbicidal effect rating” value [11] was 0 (Herbicidal rate of 5% or less (almost no effect)) and the “J: blackgrass, herbicidal effect” value [12] was 3 (Herbicidal rate of 40% or more and less than 70%). The “H: barnyard grass, herbicidal effect rating” value [13] was 0 (Herbicidal rate of 5% or less (almost no effect)), the “G: green foxtail, herbicidal effect” value [14] was 5 (Herbicidal rate of 90% or more (almost completely withered)) and the “G: green foxtail, herbicidal effect rating” value [15] was 0 (Herbicidal rate of 5% or less (almost no effect)). For the same compound, the “N: redroot pigweed, herbicidal effect rating” value [16] was 0 (Herbicidal rate of 5% or less (almost no effect)), the “O: lambsquarters, herbicidal effect rating” value [17] was 0 (Herbicidal rate of 5% or less (almost no effect)) and the “O: lambsquarters, herbicidal effect” value [18] was 2 (Herbicidal rate of 20% or more and less than 40%). The “K: Italian ryegrass, herbicidal effect rating” value [19] was 0 (Herbicidal rate of 5% or less (almost no effect)), the “herbicidal effect on E (rice flat sedge), rating 0-5” value [20] was 4 (Herbicidal rate of 70% or more and less than 90%) and the “P: chickweed, herbicidal effect rating” value [21] was 4 (Herbicidal rate of 70% or more and less than 90%). For the same compound, the “F: southern crabgrass, herbicidal effect” value [22] was 3 (Herbicidal rate of 40% or more and less than 70%), the “I: wild oat, herbicidal effect rating” value [23] was 2 (Herbicidal rate of 20% or more and less than 40%) and the “H: barnyard grass, herbicidal effect” value [24] was 1 (Herbicidal rate of 5% or more and less than 20%). The “L: windgrass, herbicidal effect rating” value [25] was 0 (Herbicidal rate of 5% or less (almost no effect)), the “herbicidal effect on H (barnyard grass), rating 0-5” value [26] was 1 (Herbicidal rate of 5% or more and less than 20%) and the “herbicidal effect on D (Chinese sprangletop), rating 0-5” value [27] was 0 (Herbicidal rate of 5% or less (almost no effect)).
